What was measured:
[1] = biological target: Receptor-type tyrosine-protein kinase FLT3 (Homo sapiens) (UniProt P36888); assay: Inhibition of autoinhibited FLT3 (unknown origin) assessed as residual activity at 1000 nM by KINOMEscan analysis relative to control
[2] = biological target: Ribosomal protein S6 kinase alpha-4 (Homo sapiens) (UniProt O75676); assay: Inhibition of C-terminal RPS6KA4 […] domain 2 (unknown origin) assessed as residual activity at 1000 nM by KINOMEscan analysis relative to control
[3] = biological target: Dual specificity protein kinase CLK1 (Homo sapiens) (UniProt P49759); assay: Inhibition of CLK1 (unknown origin) assessed as residual activity at 1000 nM by KINOMEscan analysis relative to control
[4] = biological target: Calcium/calmodulin-dependent protein kinase type 1 (Homo sapiens) (UniProt Q14012); assay: Inhibition of CAMK1 (unknown origin) assessed as residual activity at 1000 nM by KINOMEscan analysis relative to control
[5] = biological target: Serine/threonine-protein kinase PAK 4 (Homo sapiens) (UniProt O96013); assay: Inhibition of PAK4 (unknown origin) assessed as residual activity at 1000 nM by KINOMEscan analysis relative to control
[6] = biological target: Calcium/calmodulin-dependent protein kinase type II subunit alpha (Homo sapiens) (UniProt Q9UQM7); assay: Inhibition of CAMK2A (unknown origin) assessed as residual activity at 1000 nM by KINOMEscan analysis relative to control
[7] = biological target: SRSF protein kinase 2 (Homo sapiens) (UniProt P78362); assay: Inhibition of SRPK2 (unknown origin) assessed as residual activity at 1000 nM by KINOMEscan analysis relative to control
[8] = biological target: Serine/threonine-protein kinase N2 (Homo sapiens) (UniProt Q16513); assay: Inhibition of PKN2 (unknown origin) assessed as residual activity at 1000 nM by KINOMEscan analysis relative to control
[9] = biological target: Ribosomal protein S6 kinase alpha-6 (Homo sapiens) (UniProt Q9UK32); assay: Inhibition of N-terminal RSK4 […] domain 1 (unknown origin) assessed as residual activity at 1000 nM by KINOMEscan analysis relative to control
[10] = biological target: RAF proto-oncogene serine/threonine-protein kinase (Homo sapiens) (UniProt P04049); assay: Inhibition of RAF1 (unknown origin) assessed as residual activity at 1000 nM by KINOMEscan analysis relative to control
[11] = biological target: Platelet-derived growth factor receptor beta (Homo sapiens) (UniProt P09619); assay: Inhibition of PDGFRB (unknown origin) assessed as residual activity at 1000 nM by KINOMEscan analysis relative to control
[12] = biological target: Serine/threonine-protein kinase B-raf (Homo sapiens) (UniProt P15056); assay: Inhibition of BRAF (unknown origin) assessed as residual activity at 1000 nM by KINOMEscan analysis relative to control
[13] = biological target: T1, Cytoplasmic tyrosine-protein kinase BMX (Homo sapiens) (UniProt P51813); assay: Inhibition of BMX (unknown origin) assessed as residual activity at 1000 nM by KINOMEscan analysis relative to control
T1 sequence (whole entry): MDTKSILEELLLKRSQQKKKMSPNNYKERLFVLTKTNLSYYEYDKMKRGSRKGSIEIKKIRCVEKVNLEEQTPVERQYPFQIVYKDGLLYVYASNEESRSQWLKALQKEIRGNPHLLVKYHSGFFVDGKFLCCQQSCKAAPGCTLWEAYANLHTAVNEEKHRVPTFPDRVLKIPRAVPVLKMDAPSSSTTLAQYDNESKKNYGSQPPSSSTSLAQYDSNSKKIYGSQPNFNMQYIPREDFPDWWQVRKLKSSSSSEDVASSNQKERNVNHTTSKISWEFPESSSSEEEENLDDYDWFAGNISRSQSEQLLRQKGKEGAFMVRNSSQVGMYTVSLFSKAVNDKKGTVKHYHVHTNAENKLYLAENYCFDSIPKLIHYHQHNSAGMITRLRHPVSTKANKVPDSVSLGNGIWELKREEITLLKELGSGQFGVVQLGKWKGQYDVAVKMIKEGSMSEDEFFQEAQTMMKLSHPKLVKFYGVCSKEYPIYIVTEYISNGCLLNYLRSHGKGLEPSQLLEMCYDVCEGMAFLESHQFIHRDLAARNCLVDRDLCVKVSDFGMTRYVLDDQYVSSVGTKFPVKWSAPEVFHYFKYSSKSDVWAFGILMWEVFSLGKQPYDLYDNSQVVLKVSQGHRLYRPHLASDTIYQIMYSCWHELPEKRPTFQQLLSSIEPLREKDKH

[14] = test system: Tyrosine-protein kinase ABL1 (Homo sapiens), P00519 [T315I]; assay: Inhibition of nonphosphorylated ABL1 T315I mutant (unknown origin) assessed as residual activity at 1000 nM by KINOMEscan analysis relative to control
[15] = biological target: Fibroblast growth factor receptor 3 (Homo sapiens) (UniProt P22607); assay: Inhibition of FGFR3 (unknown origin) assessed as residual activity at 1000 nM by KINOMEscan analysis relative to control
[16] = biological target: Cyclin-dependent kinase 11B (Homo sapiens) (UniProt P21127); assay: Inhibition of CDK11 (unknown origin) assessed as residual activity at 1000 nM by KINOMEscan analysis relative to control
[17] = biological target: Atypical kinase COQ8A, mitochondrial (Homo sapiens) (UniProt Q8NI60); assay: Inhibition of ADCK3 (unknown origin) assessed as residual activity at 1000 nM by KINOMEscan analysis relative to control
[18] = biological target: T2, Tyrosine-protein kinase ITK/TSK (Homo sapiens) (UniProt Q08881); assay: Inhibition of ITK (unknown origin) assessed as residual activity at 1000 nM by KINOMEscan analysis relative to control
T2 sequence (whole entry): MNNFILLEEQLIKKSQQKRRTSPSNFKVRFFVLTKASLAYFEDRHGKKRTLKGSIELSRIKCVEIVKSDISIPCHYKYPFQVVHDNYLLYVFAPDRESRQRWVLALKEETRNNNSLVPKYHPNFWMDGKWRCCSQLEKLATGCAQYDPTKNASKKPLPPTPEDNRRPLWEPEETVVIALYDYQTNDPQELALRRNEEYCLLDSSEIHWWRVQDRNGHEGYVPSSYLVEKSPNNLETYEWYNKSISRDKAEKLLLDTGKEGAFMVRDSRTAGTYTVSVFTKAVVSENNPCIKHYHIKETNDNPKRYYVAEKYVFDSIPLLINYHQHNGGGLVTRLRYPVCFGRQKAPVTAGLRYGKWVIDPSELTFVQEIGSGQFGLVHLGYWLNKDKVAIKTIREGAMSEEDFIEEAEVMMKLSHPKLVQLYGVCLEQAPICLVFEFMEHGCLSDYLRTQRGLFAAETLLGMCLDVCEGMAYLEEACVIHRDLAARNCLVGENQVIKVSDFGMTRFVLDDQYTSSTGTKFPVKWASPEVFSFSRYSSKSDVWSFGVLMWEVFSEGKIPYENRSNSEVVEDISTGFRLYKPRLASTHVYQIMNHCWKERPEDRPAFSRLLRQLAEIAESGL

Receptor-type tyrosine-protein kinase FLT3 (Homo sapiens), sequence (P36888 whole entry): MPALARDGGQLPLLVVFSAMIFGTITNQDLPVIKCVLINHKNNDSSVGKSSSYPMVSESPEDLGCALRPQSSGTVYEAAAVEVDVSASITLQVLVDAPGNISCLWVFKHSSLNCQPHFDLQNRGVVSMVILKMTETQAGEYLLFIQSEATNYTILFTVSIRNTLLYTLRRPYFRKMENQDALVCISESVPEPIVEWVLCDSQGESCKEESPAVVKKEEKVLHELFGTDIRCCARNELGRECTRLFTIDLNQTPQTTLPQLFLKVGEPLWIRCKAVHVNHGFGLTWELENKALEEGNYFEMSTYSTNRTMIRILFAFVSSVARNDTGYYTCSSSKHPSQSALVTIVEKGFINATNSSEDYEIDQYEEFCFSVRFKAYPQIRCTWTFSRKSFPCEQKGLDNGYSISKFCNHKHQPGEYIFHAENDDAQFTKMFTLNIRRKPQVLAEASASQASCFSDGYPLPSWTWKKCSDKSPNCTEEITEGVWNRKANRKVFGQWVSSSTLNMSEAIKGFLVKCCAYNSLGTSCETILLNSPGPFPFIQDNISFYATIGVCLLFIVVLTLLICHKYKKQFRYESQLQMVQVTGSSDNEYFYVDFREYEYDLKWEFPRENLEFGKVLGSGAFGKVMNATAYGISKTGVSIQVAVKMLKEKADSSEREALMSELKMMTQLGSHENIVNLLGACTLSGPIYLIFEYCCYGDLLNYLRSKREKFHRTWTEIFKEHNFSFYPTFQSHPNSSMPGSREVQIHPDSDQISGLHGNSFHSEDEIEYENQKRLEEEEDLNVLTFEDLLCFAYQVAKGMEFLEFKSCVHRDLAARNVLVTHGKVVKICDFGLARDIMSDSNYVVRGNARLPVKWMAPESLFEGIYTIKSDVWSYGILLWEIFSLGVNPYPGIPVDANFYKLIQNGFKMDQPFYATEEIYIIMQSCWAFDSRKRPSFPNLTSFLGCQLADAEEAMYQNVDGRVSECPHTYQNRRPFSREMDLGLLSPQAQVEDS
Ribosomal protein S6 kinase alpha-4 (Homo sapiens), sequence (O75676 whole entry, looked up): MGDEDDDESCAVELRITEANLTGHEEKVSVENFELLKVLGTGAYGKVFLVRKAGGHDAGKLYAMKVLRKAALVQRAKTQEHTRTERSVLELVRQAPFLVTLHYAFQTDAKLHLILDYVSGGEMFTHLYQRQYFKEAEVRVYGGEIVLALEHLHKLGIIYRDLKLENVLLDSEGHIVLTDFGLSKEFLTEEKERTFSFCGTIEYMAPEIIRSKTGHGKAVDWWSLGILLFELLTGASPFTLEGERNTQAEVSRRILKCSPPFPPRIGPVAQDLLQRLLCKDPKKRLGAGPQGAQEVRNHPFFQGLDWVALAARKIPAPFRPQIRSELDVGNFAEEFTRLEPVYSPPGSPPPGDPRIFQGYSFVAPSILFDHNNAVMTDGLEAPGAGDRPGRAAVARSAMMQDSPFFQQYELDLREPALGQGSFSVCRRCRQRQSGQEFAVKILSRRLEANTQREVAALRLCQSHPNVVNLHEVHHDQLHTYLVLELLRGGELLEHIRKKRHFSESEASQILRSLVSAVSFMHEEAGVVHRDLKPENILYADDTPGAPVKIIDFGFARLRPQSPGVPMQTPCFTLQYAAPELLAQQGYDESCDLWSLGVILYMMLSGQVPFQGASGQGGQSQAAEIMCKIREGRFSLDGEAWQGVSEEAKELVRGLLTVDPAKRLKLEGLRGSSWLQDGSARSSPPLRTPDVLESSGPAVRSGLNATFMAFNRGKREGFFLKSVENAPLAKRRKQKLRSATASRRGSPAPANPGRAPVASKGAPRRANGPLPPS
Platelet-derived growth factor receptor beta (Homo sapiens), sequence (P09619 whole entry): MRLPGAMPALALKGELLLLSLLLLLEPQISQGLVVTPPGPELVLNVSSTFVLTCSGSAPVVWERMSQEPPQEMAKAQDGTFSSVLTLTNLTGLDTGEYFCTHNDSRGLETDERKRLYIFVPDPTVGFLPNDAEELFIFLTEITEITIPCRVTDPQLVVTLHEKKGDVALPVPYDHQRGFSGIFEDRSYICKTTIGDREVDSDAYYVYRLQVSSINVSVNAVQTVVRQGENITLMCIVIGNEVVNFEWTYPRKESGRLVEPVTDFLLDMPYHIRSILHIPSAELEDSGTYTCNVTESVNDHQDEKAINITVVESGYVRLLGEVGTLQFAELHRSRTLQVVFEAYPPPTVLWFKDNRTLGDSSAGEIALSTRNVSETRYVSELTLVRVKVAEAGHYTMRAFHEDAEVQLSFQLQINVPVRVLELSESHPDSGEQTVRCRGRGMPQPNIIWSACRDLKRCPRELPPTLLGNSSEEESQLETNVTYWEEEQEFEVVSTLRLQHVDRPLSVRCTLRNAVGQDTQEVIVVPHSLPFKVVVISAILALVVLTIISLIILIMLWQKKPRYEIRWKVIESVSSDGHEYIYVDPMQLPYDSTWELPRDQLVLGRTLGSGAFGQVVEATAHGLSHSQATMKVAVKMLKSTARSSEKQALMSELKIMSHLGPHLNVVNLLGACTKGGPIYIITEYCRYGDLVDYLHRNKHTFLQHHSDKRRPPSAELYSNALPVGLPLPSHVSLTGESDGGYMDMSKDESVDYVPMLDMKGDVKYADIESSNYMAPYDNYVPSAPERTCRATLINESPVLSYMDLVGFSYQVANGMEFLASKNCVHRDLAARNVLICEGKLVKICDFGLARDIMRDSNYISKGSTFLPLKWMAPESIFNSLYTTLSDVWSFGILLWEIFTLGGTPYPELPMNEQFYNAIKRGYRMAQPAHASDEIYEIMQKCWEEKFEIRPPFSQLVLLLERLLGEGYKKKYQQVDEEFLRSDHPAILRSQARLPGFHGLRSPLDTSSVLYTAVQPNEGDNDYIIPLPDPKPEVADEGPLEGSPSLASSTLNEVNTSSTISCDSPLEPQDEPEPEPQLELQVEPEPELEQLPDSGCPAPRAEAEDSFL
Atypical kinase COQ8A, mitochondrial (Homo sapiens), sequence (Q8NI60 163-647 limits assumed): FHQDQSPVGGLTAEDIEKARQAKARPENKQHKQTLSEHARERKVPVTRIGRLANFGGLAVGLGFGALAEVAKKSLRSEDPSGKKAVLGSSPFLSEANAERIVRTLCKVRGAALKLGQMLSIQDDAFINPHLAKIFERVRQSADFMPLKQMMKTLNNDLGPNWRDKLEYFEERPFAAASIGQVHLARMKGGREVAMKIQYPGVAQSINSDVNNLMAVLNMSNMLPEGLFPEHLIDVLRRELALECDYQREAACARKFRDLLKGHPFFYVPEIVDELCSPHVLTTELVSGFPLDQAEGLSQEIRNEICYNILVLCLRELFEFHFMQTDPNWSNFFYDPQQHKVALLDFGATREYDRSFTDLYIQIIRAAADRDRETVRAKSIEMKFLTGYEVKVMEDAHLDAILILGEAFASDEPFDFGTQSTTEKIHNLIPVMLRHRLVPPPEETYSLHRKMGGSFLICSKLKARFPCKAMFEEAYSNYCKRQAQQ
RAF proto-oncogene serine/threonine-protein kinase (Homo sapiens), sequence (P04049 whole entry): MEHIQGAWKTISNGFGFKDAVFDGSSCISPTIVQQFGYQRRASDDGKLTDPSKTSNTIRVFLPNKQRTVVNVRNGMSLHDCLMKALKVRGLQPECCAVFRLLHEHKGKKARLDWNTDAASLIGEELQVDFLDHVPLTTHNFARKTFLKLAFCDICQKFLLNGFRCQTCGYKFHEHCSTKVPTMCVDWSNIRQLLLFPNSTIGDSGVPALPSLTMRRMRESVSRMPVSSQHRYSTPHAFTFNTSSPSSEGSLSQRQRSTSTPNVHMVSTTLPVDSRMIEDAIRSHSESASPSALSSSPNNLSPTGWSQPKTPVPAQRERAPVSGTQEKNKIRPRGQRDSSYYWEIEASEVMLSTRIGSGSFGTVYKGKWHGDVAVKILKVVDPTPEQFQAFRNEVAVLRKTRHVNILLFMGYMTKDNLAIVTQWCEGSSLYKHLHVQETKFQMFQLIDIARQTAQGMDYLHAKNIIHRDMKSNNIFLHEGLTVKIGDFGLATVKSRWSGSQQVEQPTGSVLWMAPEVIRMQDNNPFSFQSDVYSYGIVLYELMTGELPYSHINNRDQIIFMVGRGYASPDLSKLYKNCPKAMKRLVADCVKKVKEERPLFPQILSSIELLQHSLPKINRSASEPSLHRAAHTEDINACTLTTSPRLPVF
Serine/threonine-protein kinase PAK 4 (Homo sapiens), sequence (O96013 whole entry, looked up): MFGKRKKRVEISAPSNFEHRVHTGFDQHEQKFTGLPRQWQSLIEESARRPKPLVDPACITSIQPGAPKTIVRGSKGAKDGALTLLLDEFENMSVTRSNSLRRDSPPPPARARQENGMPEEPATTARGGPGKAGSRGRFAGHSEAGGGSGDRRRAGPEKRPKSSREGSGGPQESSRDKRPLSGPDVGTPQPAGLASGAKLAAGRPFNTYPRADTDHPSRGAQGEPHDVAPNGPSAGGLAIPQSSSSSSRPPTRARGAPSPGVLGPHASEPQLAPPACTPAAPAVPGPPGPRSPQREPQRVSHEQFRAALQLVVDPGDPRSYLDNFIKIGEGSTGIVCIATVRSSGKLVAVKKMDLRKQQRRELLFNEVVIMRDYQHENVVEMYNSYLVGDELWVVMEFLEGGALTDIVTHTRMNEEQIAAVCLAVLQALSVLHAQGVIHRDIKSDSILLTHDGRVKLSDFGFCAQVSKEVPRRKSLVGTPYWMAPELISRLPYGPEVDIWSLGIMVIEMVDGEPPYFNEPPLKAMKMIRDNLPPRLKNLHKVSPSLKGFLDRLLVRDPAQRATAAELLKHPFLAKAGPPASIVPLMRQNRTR
Calcium/calmodulin-dependent protein kinase type 1 (Homo sapiens), sequence (Q14012 whole entry, looked up): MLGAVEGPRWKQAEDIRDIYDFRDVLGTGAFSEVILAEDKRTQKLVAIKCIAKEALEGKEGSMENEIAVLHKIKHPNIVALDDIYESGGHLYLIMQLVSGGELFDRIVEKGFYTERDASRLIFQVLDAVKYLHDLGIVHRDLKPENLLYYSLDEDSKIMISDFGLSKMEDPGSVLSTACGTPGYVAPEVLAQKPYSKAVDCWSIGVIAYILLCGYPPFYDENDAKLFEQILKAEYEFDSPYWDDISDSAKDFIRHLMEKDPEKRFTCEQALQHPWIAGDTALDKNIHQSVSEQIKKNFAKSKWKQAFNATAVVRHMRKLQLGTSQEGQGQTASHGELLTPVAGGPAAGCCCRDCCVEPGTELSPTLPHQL

SMILES | Activity [1] | Activity [2] | Activity [3] | Activity [4] | Activity [5] | Activity [6] | Activity [7] | Activity [8] | Activity [9] | Activity [10] | Activity [11] | Activity [12] | Activity [13] | Activity [14] | Activity [15] | Activity [16] | Activity [17] | Activity [18]
COc1cc2nc(C)nc(N[C@H](C)c3cccc(-c4cn[nH]c4)c3)c2cc1OC | 100% | 100% | 70% | 73% | 86% | 94% | 94% | 78% | 78% | 100% | 100% | 75% | 100% | 95% | 100% | 100% | 98% | 67%
COc1cc2ncnc(N[C@H](C)c3cccc4ccccc34)c2cc1OC | 87% | 82% | 100% | 100% | 100% | 95% | 93% | 100% | 100% | 94% | 94% | 91% | 97% | 100% | 100% | 84% | 94% | 100%
